# Measured values published in US20070275382A1, “Biomarkers for the Efficacy of Somatostatin Analogue Treatment” (priority 2003, published 2007).
# *1 amine or outer side, *2 acyl side, *3 side chain or, on linkers, in order; H or OH if unused. Where a SMILES comes first, the peptide text is derived from it. Side-chain parts run from the residue outwards. [ ]: non-standard residue; d: D form. The star is where a group is joined. Ethylenediamine = C(CN[*:2])N[*:1]; Hyp = O=C(O)[CH]1C[CH](O)CN1; Phg = N[CH](C(=O)O)c1ccccc1; CO = O=C([*:1])[*:2]; Bn = c1ccc(C*)cc1
# Columns and labels:
# [1] = system: Pancreas; test: Microarray gene expression profiling (HG-U95A), pancreas; type: in vivo, cynomolgus monkeys
# Method: Origin of tissue and processing. Male and female cynomolgus monkeys received subcutaneously pasireotide (100 μg/animal/day) or the vehicle for 14 days. On day 15, all animals were sacrificed and tissues for RNA extraction were immediately snap-frozen and kept at −80° C. until processing.
# RNA expression profiling was conducted by means of the HG-U95A gene expression probe array (Affymetrix; Santa Clara, Calif. USA), containing more than 12,600 probe sets interrogating primarily full-length human genes and also some control probe sets. The experiment was conducted according to the recommendations of the manufacturer. Briefly, total RNA was obtained by acid guanidinium thiocyanate-phenol-chloroform extraction (Trizol®, Invitrogen Life Technologies, San Diego, Calif. USA) from each frozen tissue section. The total RNA was then purified on an affinity resin (Rneasy®, Qiagen) and quantified. Double stranded cDNA was synthesized with a starting amount of approximately 5 μg full-length total RNA using the Superscript® Choice System (Invitrogen Life Technologies, Carlsbad, Calif. USA) in the presence of a T7-(dT)24 DNA oligonucleotide primer. Following synthesis, the cDNA was purified by phenol/chloroform/isoamyl alcohol extraction and ethanol precipitation. The purified cDNA was then transcribed in vitro using the BioArray® High Yield RNA Transcript Labeling Kit (ENZO, Farmingdale, N.Y. USA) in the presence of biotinylated ribonucleotides form biotin labelled cRNA. The labelled cRNA was then purified on an affinity resin (Rneasy®, Qiagen), quantified and fragmented. An amount of approximately 10 μg labelled cRNA was hybridized for 16 hours at 45° C. to an expression probe array. The array was then washed and stained twice with streptavidin-phycoerythrin (Molecular Probes,) using the GeneChip® Fluidics Workstation 400 (Affymetrix, Santa Clara, Calif. USA). The array was then scanned twice using a confocal laser scanner (GeneArray® Scanner, Agilent, Palo Alto, Calif. USA) resulting in one scanned image. This resulting “.dat-file” was processed using the MAS4 program (Affymetrix) into a “.cel-file”. The “.cel file” was captured and loaded into the Affymetrix GeneChip® Laboratory Information Management System (LIMS). The LIMS database is connected to a UNIX Sun Solaris server through a network filing system that allows for the average intensities for all probes cells (CEL file) to be downloaded into an Oracle database (NPGN). Raw data was converted to expression levels using a “target intensity” of 150. The data were evaluated for quality control and loaded in the GeneSpring® software 4.2.4 (Silicon Genetics, Calif. USA) for analysis.
# On the human Affymetrix HGU95Av2 chip, probe sets for individual genes contain 20 oligonucleotide pairs, each composed of a “perfect match” 25-mer and a “mismatch” 25-mer differing from the “perfect” match oligonucleotide at a single base. After probe labelling, hybridization, and laser scanning, the expression level was estimated by averaging the differences in signal intensity measured by oligonucleotide pairs of a given probe (AvgDiff value). The fold changes and directions were calculated for selected genes, from the differences of the AvgDiff values between controls and treated.
# To identify genes that were impacted by pasireotide, the dataset was initially filtered to exclude in a first wave of analysis, genes whose values were systematically in the lower expression ranges where the experimental noise is high (at least 80 in a number of experiments corresponding to the smallest number of replicas of any experimental point). In a second round of selection a threshold p-value of 0.05 (based on a t-test) identified differences between treated and control based on a two component error model (Global Error Model) and, whenever possible, with a stepdown correction for multi-hypothesis testing (Benjamini and Hochberg false discovery rate). […]
# [2] = molecular target: T1, hSST-4 (Homo sapiens, UniProt P31391); conditions: background statement; cited from earlier work
# T1 construct: expressed in transfected cells; host or cells: CHO cells
# [3] = ↑ vs control, 100 μg/animal/day s.c., 14 days
# [4] = ↓ vs control, 100 μg/animal/day s.c., 14 days
# T1 sequence (P31391 whole entry): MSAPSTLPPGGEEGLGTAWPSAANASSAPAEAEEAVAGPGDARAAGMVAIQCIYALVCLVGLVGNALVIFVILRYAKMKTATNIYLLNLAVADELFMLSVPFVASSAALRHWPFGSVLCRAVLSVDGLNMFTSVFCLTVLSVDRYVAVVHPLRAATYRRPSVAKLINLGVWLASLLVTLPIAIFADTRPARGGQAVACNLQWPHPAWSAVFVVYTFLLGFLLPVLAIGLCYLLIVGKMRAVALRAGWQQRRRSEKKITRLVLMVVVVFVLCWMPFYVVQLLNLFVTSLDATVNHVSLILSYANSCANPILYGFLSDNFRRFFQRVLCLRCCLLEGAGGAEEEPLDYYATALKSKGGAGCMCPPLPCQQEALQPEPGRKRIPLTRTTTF
structure (smiles),measurement,setting,value
"NCCCCC1NC(=O)C(Cc2c[nH]c3ccccc23)NC(=O)C(c2ccccc2)NC(=O)C2CC(OC(=O)NCCN)CN2C(=O)C(Cc2ccccc2)NC(=O)C(Cc2ccc(OCc3ccccc3)cc2)NC1=O (stereo not drawn) [Pasireotide, cyclo[4-(NH2—C2H4—NH—CO—O)Pro-Phg-DTrp-Lys-Tyr(4-Bzl)-Phe]] (cyclo(F[Hyp]([CO-Ethylenediamine])[Phg]WKY(Bn)); configuration not given here)","IGF-1 expression level, AvgDiff (range)",[1]; 0.1 mg/animal/14day,89 (20 to 298)
same,"SSTR2 expression level, AvgDiff (range)",[1]; 0.1 mg/animal/14day,156 (120 to 210)
same,Cdki 1C transcript fold change,[1]; [3],Cdki 1C ↑ x2
same,Chymotrypsin-like transcript fold change,[1]; [3],↑ x3.5
same,Cyclin D1 transcript fold change,[1]; [3],Cyclin D1 ↑ x2
same,"GLUR precursor, flip isoform transcript fold change",[1]; [3],flip isoform ↑ x3
same,IFN regulatory factor 3 transcript fold change,[1]; [3],factor 3 ↑ x5
same,IGF-1 transcript fold change,[1]; [3],IGF-1 ↑ x4.5
same,IP-1-phosphatase transcript fold change,[1]; [3],↑ x2.5
same,Integrin α 2b precursor transcript fold change,[1]; [3],precursor ↑ x1.5
same,"Na+ channel, voltage-gated, type 1, β polypeptide transcript fold change",[1]; [3],↑ x2
same,PDGFR α transcript fold change,[1]; [3],PDGFR α ↑ x2.5
same,"PDGFR, α polypeptide transcript fold change",[1]; [3],↑ x1.5
same,"PI-4-kinase, catalytic, α polypeptide transcript fold change",[1]; [3],α polypeptide ↑ x1.5
same,"PL A2, group IVC (cytosolic, calcium-independent) transcript fold change",[1]; [3],independent) ↑ x1.5
same,Prostacyclin synthase transcript fold change,[1]; [3],synthase ↑ x2
same,THR interactor 10 transcript fold change,[1]; [3],↑ x2.5
same,Thrombospondin 2 transcript fold change,[1]; [3],↑ x3.5
same,"BCL2/adenovirus E1B 19 kD-intracting protein 1, isoform BNIP1-a transcript fold change",[1]; [4],BNIP1-a ↓ x1.5
same,CRHR 1 transcript fold change,[1]; [4],CRHR 1 ↓ x2
same,"Ca++ channel, voltage dependent, α 1F subunit transcript fold change",[1]; [4],↓ x4.5
same,Cyclin T2 transcript fold change,[1]; [4],Cyclin T2 ↓ x2
same,G-CSF protein transcript fold change,[1]; [4],↓ x2
same,Gastrin-releasing peptide receptor transcript fold change,[1]; [4],↓ x5
same,IL 1 receptor antagonist transcript fold change,[1]; [4],antagonist↓ x2
same,"K+ voltage-gated channel, KQT-like subfamily, member3 transcript fold change",[1]; [4],↓ x2.5
same,Neuro-blastoma apoptosis-related RNA binding protein transcript fold change,[1]; [4],protein ↓ x3
same,Phosphotyrosine independent ligand p62B for the Lck SH2 domain B-cell isoform transcript fold change,[1]; [4],isoform ↓ x2
same,Smad 3 transcript fold change,[1]; [4],Smad 3 ↓ x1.5
same,THR binding protein transcript fold change,[1]; [4],protein ↓ x2
same,binding to SSTR4,[2],binds to all somatostatin receptors except SSTR4
